Data from patent US20240083857A1, “2-Methyl-Quinazolines” (Bayer Pharma Aktiengesellschaft, priority 2017, published 2024).

Legend:
[1] = molecular target: Epidermal Growth Factor Receptor (EGFR) (Homo sapiens (Human), UniProt P00533); assay: EGFR kinase assay (TR-FRET); assay type: biochemical; conditions: values given in μM; read-out: EGFR kinase inhibition IC50
Procedure, shortened: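 Read-out is the 665/620 nm HTRF ratio, from a Tb-cryptate anti-phosphotyrosine antibody and streptavidin-XL665 bound to phosphorylated biotin-peptide substrate. The enzyme, A431-derived EGFR (~3 U/ml), was given 15 min compound pre-binding at 22° C in Hepes pH 7.0 with Mg2+/Mn2+ before reaction.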

[2] = molecular target: K-Ras^G12C : hSOS1 interaction (Homo sapiens, UniProt Q07889); assay: Biochemical assay 1: K-Ras^G12C interaction assay with hSOS1 (HTRF); assay type: binding; conditions: read-out: Assay 1 (KRAS-SOS Interaction) activity expressed as IC50

Sequence of Epidermal Growth Factor Receptor (EGFR) (P00533 25-1210): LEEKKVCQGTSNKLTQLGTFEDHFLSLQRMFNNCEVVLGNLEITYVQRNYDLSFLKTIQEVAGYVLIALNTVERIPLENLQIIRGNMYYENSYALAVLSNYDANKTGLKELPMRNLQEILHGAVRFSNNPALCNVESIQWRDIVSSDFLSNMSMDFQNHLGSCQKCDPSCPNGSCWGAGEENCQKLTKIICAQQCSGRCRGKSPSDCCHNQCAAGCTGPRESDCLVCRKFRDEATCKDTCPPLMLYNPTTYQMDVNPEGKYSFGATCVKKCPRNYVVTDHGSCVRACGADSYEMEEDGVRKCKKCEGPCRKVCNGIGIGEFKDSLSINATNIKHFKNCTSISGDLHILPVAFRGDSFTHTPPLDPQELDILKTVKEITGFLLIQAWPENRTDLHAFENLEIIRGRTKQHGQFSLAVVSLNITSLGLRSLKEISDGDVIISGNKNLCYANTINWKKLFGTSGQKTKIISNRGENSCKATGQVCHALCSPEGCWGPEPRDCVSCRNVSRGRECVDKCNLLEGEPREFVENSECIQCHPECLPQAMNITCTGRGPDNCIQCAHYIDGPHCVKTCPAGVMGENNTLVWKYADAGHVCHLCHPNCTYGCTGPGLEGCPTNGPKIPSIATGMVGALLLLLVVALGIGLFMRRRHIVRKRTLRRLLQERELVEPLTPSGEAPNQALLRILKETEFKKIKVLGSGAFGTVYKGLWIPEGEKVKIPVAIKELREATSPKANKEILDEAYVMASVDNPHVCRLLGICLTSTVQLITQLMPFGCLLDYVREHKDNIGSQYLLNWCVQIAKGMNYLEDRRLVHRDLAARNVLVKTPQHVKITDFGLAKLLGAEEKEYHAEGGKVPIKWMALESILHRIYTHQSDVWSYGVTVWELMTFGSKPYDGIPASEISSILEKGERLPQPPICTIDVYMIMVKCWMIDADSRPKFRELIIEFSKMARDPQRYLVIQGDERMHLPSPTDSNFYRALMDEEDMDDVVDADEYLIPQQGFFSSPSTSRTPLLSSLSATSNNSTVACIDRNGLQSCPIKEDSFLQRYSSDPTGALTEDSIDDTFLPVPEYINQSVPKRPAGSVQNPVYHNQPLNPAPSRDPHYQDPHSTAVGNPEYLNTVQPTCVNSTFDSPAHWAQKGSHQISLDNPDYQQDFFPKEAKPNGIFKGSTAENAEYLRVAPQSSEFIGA

COc1cc2nc(C)nc(NC(C)c3ccc(C4=CCOCC4)s3)c2cc1OC (stereo not drawn) [Example 235, N-{1-[5-(3,6-dihydro-2H-pyran-4-yl)thiophen-2-yl]ethyl}-6,7-dimethoxy-2-methylquinazolin-4-amine]
IC50 [1]: > 20 µM | IC50 [2]: 5.47 µM

COc1cc2nc(C)nc(NC(C)c3csc(-c4cnc5n4CCC5)c3)c2cc1OC (stereo not drawn) [Example 253, N-{1-[5-(6,7-dihydro-5H-pyrrolo[1,2-a]imidazol-3-yl)thiophen-3-yl]ethyl}-6,7-dimethoxy-2-methylquinazolin-4-amine]
IC50 [1]: > 20 µM | IC50 [2]: 1.31 µM

COc1cc2nc(C)nc(NC(C)c3ccc(-c4ccccc4CCO)s3)c2cc1OC (stereo not drawn) [Example 180, 2-[2-(5-{1-[(6,7-dimethoxy-2-methylquinazolin-4-yl)amino]ethyl}thiophen-2-yl)phenyl]ethanol]
IC50 [1]: > 20 µM | IC50 [2]: 0.241 µM
